From US6489469B1, “Method for storing or transporting erythritol solution” (Nikken Chemicals Co., Ltd., priority 1999, dated 2002)

Experiments:
[1] = system: Aspergillus niger IFO 6342; assay: Viable Count of Aspergillus niger IFO 6342 in Erythritol Solution; assay type: cell-based
Experimental: Erythritol solutions of respective concentrations in the range of from 30 to 60% were prepared. To these were inoculated Staphylococcus aureus IFO 13276, Bacillus subtilis IFO 3134, and Escherichia coli IFO 3972 as bacteria, Candida albicans IFO 1549 and Saccharomyces cerevisiae ATCC 9763 as yeasts, Aspergillus niger IFO 6342, Aspergillus flavus IFO 6343, and Penicillium funiculosum IFO 6345 as fungi, respectively, in a population (concentration) of 10,000 cells/mL or more. After the inoculation, the solutions were stored at 30, 37, 45, 50, or 60° C., respectively, for 56 days and the number of viable cell was determined daily. The determination of the number of viable cell was performed by a method of coating 0.1 mL of appropriately diluted sample cultivation on an agar plate and cultivating and counting the number of viable cell (the number of colony) that grew after the cultivation.

[2] = system: Bacillus stearothermophilus IFO 12550; assay: Viable Count of Bacillus stearothermophilus IFO 12550 in Erythritol Solution (heat resistant bacteria); assay type: cell-based; details: 50° C., 30% w/w
Experimental: Erythritol solutions of respective concentrations in the range of from 30 to 70% were prepared. To these was inoculated Bacillus stearothermophilus IFO 12550 as a heat resistant bacterium in a population (concentration) of 10,000 cells/mL or more.
After the inoculation, the solutions were stored at 50, 60 or 75° C., respectively, for 56 days and the number of viable cell was determined daily. The determination of the number of viable cell was performed by in the same manner as in Example 1.

OC[C@@H](O)[C@@H](O)CO [Erythritol Solution, erythritol]
50 cells/mL: The Number of Viable Cell ([2]; Day 56)
prevented from growing: growth of the microbes ([1]; temperature of 50° C. or more)
60 cells/mL: The Number of Viable Cell ([2]; Day 7) | The Number of Viable Cell ([2]; Day 28)
40 cells/mL: The Number of Viable Cell ([2]; Day 14)
0 cells/mL: The Number of Viable Cell ([1]; 45° C., 30% w/w, Day 56) | The Number of Viable Cell ([1]; 45° C., 40% w/w, Day 28) | The Number of Viable Cell ([1]; 45° C., 40% w/w, Day 56) | The Number of Viable Cell ([1]; 45° C., 50% w/w, Day 28) | The Number of Viable Cell ([1]; 45° C., 50% w/w, Day 56) | The Number of Viable Cell ([1]; 50° C., 30% w/w, Day 3) | The Number of Viable Cell ([1]; 50° C., 30% w/w, Day 7) | The Number of Viable Cell ([1]; 50° C., 30% w/w, Day 14) | The Number of Viable Cell ([1]; 50° C., 30% w/w, Day 28) | The Number of Viable Cell ([1]; 50° C., 30% w/w, Day 56) | The Number of Viable Cell ([1]; 50° C., 40% w/w, Day 7) | The Number of Viable Cell ([1]; 50° C., 40% w/w, Day 14) | The Number of Viable Cell ([1]; 50° C., 40% w/w, Day 28) | The Number of Viable Cell ([1]; 50° C., 40% w/w, Day 56) | The Number of Viable Cell ([1]; 50° C., 50% w/w, Day 7) | The Number of Viable Cell ([1]; 50° C., 50% w/w, Day 14) | The Number of Viable Cell ([1]; 50° C., 50% w/w, Day 28) | The Number of Viable Cell ([1]; 50° C., 50% w/w, Day 56) | The Number of Viable Cell ([1]; 60° C., 30% w/w, Day 3) | The Number of Viable Cell ([1]; 60° C., 30% w/w, Day 7) | The Number of Viable Cell ([1]; 60° C., 30% w/w, Day 14) | The Number of Viable Cell ([1]; 60° C., 30% w/w, Day 28) | The Number of Viable Cell ([1]; 60° C., 30% w/w, Day 56) | The Number of Viable Cell ([1]; 60° C., 40% w/w, Day 3) | The Number of Viable Cell ([1]; 60° C., 40% w/w, Day 7) | The Number of Viable Cell ([1]; 60° C., 40% w/w, Day 14) | The Number of Viable Cell ([1]; 60° C., 40% w/w, Day 28) | The Number of Viable Cell ([1]; 60° C., 40% w/w, Day 56) | The Number of Viable Cell ([1]; 60° C., 50% w/w, Day 3) | The Number of Viable Cell ([1]; 60° C., 50% w/w, Day 7) | The Number of Viable Cell ([1]; 60° C., 50% w/w, Day 14) | The Number of Viable Cell ([1]; 60° C., 50% w/w, Day 28) | The Number of Viable Cell ([1]; 60° C., 50% w/w, Day 56) | The Number of Viable Cell ([1]; 60° C., 60% w/w, Day 3) | The Number of Viable Cell ([1]; 60° C., 60% w/w, Day 7) | The Number of Viable Cell ([1]; 60° C., 60% w/w, Day 14) | The Number of Viable Cell ([1]; 60° C., 60% w/w, Day 28) | The Number of Viable Cell ([1]; 60° C., 60% w/w, Day 56)
70 cells/mL: The Number of Viable Cell ([2]; Day 3)
10000 or more cells/mL: The Number of Viable Cell ([2]; Day 0)
7 days: time after which microbes died ([1]; temperature of 50° C. or more)
≥ 10000 cells/mL: The Number of Viable Cell ([1]; 45° C., 30% w/w, Day 0) | The Number of Viable Cell ([1]; 45° C., 30% w/w, Day 3) | The Number of Viable Cell ([1]; 45° C., 30% w/w, Day 7) | The Number of Viable Cell ([1]; 45° C., 30% w/w, Day 14) | The Number of Viable Cell ([1]; 45° C., 30% w/w, Day 28) | The Number of Viable Cell ([1]; 45° C., 40% w/w, Day 0) | The Number of Viable Cell ([1]; 45° C., 40% w/w, Day 3) | The Number of Viable Cell ([1]; 45° C., 40% w/w, Day 7) | The Number of Viable Cell ([1]; 45° C., 40% w/w, Day 14) | The Number of Viable Cell ([1]; 45° C., 50% w/w, Day 0) | The Number of Viable Cell ([1]; 45° C., 50% w/w, Day 3) | The Number of Viable Cell ([1]; 45° C., 50% w/w, Day 7) | The Number of Viable Cell ([1]; 45° C., 50% w/w, Day 14) | The Number of Viable Cell ([1]; 50° C., 30% w/w, Day 0) | The Number of Viable Cell ([1]; 50° C., 40% w/w, Day 0) | The Number of Viable Cell ([1]; 50° C., 40% w/w, Day 3) | The Number of Viable Cell ([1]; 50° C., 50% w/w, Day 0) | The Number of Viable Cell ([1]; 50° C., 50% w/w, Day 3) | The Number of Viable Cell ([1]; 60° C., 30% w/w, Day 0) | The Number of Viable Cell ([1]; 60° C., 40% w/w, Day 0) | The Number of Viable Cell ([1]; 60° C., 50% w/w, Day 0) | The Number of Viable Cell ([1]; 60° C., 60% w/w, Day 0)
